How the values were obtained:
[1] = tested on: HepG2 hepatoblastoma cell line; test: Cytotoxicity assay (WST-1); format: cell-based, human; settings: Hep-G2 cells, 24 hours exposure
From the text: This assay investigates cytotoxicity which is defined as the cell-killing property of a chemical compound, independent from the mechanisms of cell death. The HepG2 hepatoblastoma cell line is one of the most common human cell lines for hepatotoxicity studies. […] This assay measures metabolic activity of living cells using the WST-1 cell proliferation reagent (Roche Diagnostics). The tetrazolium salt WST-1 is cleaved to water soluble formazan by cellular enzymes. An expansion in the number of viable cells results in an increase in the overall activity of mitochondrial dehydrogenases in the sample. This augmentation in enzyme activity leads to an increase in the amount of formazan dye formed, which directly correlates to the number of metabolically active cells in the culture. The formazan dye produced by metabolically active cells is directly quantified in a scanning multiwell spectrophotometer by measuring the absorbance of the formazan dye solution between 420 and 480 nm. Healthy HepG2 cells, when maintained in culture, continuously divide and multiply over time. A toxic chemical, regardless of site and mechanism of action, will interfere with this process and result in the reduction of the growth rate reflected in the cell number.
Experimental Procedure: Hep-G2 cells are seeded into a 96-well microplate and maintained in culture for 24 hours. They are then exposed to the test compound over a range of eight concentrations. After 24 hours exposure, the cells are incubated in presence of reagent WST-1 for 30 min before measuring the absorbance of the formazan dye formed. Cytotoxicity is expressed as a concentration dependent reduction of the conversion formazan dye formation due to a decrease in cell proliferation as compared to untreated cells. The TC50 (Toxic Concentration 50%), is defined as the concentration of tested compound required to reduce the cellular viability by 50% relative to the control culture. The lower the TC50 value, the higher is the cytotoxic potential of the test compound. […]

[2] = tested on: Immortalized lymphoblastoid cells (BC1 LCL); test: ATP assay (ATP dependent luciferase reaction, low glucose); format: cell-based; settings: 10 µM, 72 h
From the text: Electrons donated from the citric acid cycle in form of NADH are transferred between complexes I, II and III of the respiratory chain. In this process mitochondrial membrane potential is generated through proton pumps in the mitochondrial inner membrane. This electrochemical gradient across the inner mitochondrial membrane is used in healthy cells to provide the energy to drive mitochondrial ATP production. Consequently, cellular ATP levels are a good indicator of mitochondrial function. […] A potential inhibition of mitochondrial respiration can be detected through special growth conditions in vitro. […]
Experimental Procedure: This assay was therefore performed in the absence of glucose in the medium. […] The number of cells was counted and after brief washing in PBS and collecting through centrifugation (5 min; 200 x g) the cells were lysed in a volume of 0.5 ml lysis solution (4 mM EDTA, 0.2% Triton X-100) for 15 min.on ice and 10 µl of lysate was added into a white 96 well plate. […] The reaction was started by addition of 100 µl reaction mix (300 µM D-Luciferin, 5 µg/ml firefly luciferase, 75 µM DTT, 25 mM HEPES, 6.25 mM MgCl2, 625 µM EDTA and 1 mg/ml BSA) and the luminescence signal was quantified in a multimode plate reader (Tecan M1000 plate reader; luminescence integration time: 100 ms). […]

Compound	TC50 [1] [µM]	ATP levels [2] [%]
COC1=C(OC)C(=O)C(CCCCCCCCCCO)=C(C)C1=O [Compound IA, Idebenone]	100	
CCCCCCCCCCCC1=C(O)C(=O)C=C(O)C1=O [Compound IE, Embelin]	100	95
COC1=C(OC)C(=O)C(CCCCCCCCCC(C)(C)O)=C(C)C1=O [Compound IC]		63

— patent EP2605769B1, “BENZOQUINONE DERIVATIVES FOR THE TREATMENT OF MITCHONDRIAL EYE DISEASES” (Santhera Pharmaceuticals (Schweiz) AG, priority 2010, dated 2012)
